1 molecule from patent US20260294867A1, “METHODS FOR WEIGHT LOSS AND/OR REDUCING WEIGHT GAIN” (The Medical College of Wisconsin, Inc., priority 2023, published 2026) can be followed below.

Holding throughout (format): in vivo, C57BL/6J diet-induced obesity (DIO) male mice
Test [1] in a line: Example 2: fasted blood glucose at day 27. Particulars: 4 hours without food. An excerpt: (§1) FIG. 5 depicts the experimental approach for this Example, and additional details can be found in Tables 3 and 4 below. C57BL/6J diet-induced obesity (DIO) male mice were obtained at 12 weeks of age and housed singly in the MCW animal facility (https://www.jax.org/jax-mice-and-services/strain-data-sheet-pages/phenotype-information-380050). Mice were maintained on a 60% high fat diet (Research Diets D12492) throughout the experiment. Mice were acclimated for 2 weeks prior to treatment with either semaglutide, reutericyclin (RTC), both drugs, or neither drug.
(§2) Mice were weight-matched into 4 groups (N=10 per group) and given either reutericyclin via gavage to achieve a dosage of 100 μg/kg or injected intraperitoneally (IP) with semaglutide to administer 1 nmole/kg/day. All mice experienced both gavage and injection with either drug or vehicle. Vehicle for reutericyclin and semaglute are identical: 3.0% DMSO in phosphate buffered saline (PBS).
The four groups of mice were as follows: Group 1 (black) (HFD-PBS) received no drug but experienced gavage and injection; Group 2 (red) (HFD-RTC) received reutericyclin via gavage and experienced injection with vehicle only; Group 3 (green) (HFD-SemaG) received no drug via gavage and experienced injection with semaglutide; and Group 4 (purple) (HFD-RTC-SemaG) received reutericyclin via gavage and experienced injection with semaglutide.
Fasted blood glucose (4 hours without food) was performed with standard glucose test strips. Blood was obtained by a tail prick on day 27 of the experiment.
For each 2-way ANOVA statistical analyses, injection refers to semaglutide, gavage refers to reutericyclin, and interaction refers to the combination of injection and gavage.
FIG. 9 is a bar graph depicting the fasted blood glucose level at day 27 as described in Example 2.

The nature of test [2]: Example 2: feeding efficiency. Conditions: 2-way ANOVA, days 21-26.
From the text: as §1
(§3) Mice were weight-matched into 4 groups (N=10 per group) and given either reutericyclin via gavage to achieve a dosage of 100 μg/kg or injected intraperitoneally (IP) with semaglutide to administer 1 nmole/kg/day. All mice experienced both gavage and injection with either drug or vehicle. Vehicle for reutericyclin and semaglute are identical: 3.0% DMSO in phosphate buffered saline (PBS). […]
(§4) Mice were weighed daily to assess changes in body mass. […] Feeding efficiency is calculated by measuring the amount of weight gained by each mouse per gram of food consumed over a period of 5 days. Feeding efficiency shown here was calculated over days 21-26. […]

The nature of test [3]: Example 1: fasted blood glucose. Conditions: 2-way ANOVA of FIG. 4B; reutericyclin 100 μg/kg gavage, semaglutide 1 nmole/kg/day IP.
From the text: (§5) FIG. 1 depicts the experimental approach for this Example. C57BL/6J diet-induced obesity (DIO) male mice were obtained at 12 weeks of age and housed singly in the MCW animal facility (www.jax.org/jax-mice-and-services/strain-data-sheet-pages/phenotype-information-380050). Mice were maintained on a 60% high fat diet (HFD) (Research Diets D12492) throughout the experiment. Mice were acclimated for 2 weeks prior to treatment with either semaglutide, reutericyclin, both drugs, or neither drug.
as §2
(§6) The four groups were: the control group (HFD-PBS), which received vehicle only; the HFD-RTC group, which were administered reutericyclin at a dose of 100 μg/kg of body weight in PBS; the HFD-RTC-SemaG group, which received reutericyclin at a dose of 100 μg/kg of body weight and 1 nanomole of semaglutide/kg of body weight in vehicle; and the HFD-SemaG group, which were administered 1 nanomole of semaglutide/kg of body weight in vehicle. […]

Test [4] can be described thus: Example 1: eating behavior, calories ingested per day. Conditions: 2-way ANOVA of FIG. 4A; reutericyclin 100 μg/kg gavage, semaglutide 1 nmole/kg/day IP.
From the text: as §5, §2, §6

The nature of test [5]: Example 2: change in weight at day 46 after withdrawal of the semaglutide. Conditions: 2-way ANOVA.
From the text: as §1, §3, §4

The nature of test [6]: Example 2: change in body mass on day 26. Particulars: 2-way ANOVA.
From the text: as §1, §3, §4

As for `CCCCCCC/C=C/C(=O)N1C(=O)C(C(C)=O)=C(O)[C@H]1CC(C)C` [reutericyclin, (5R)-1-(2-decenoyl)-2-hydroxy-3-acetyl-5-isobutyl-42-pyrroline-4-one], in test [1] (2-way ANOVA), the “Significant?, fasted blood glucose level” value is “No”. The “% of total variation, fasted blood glucose level” value in test [1] (2-way ANOVA, gavage = reutericyclin, injection = semaglutide, interaction = combination) worked out at 9.241e−005%. Further, in test [1] (tail prick), the “effect on blood glucose levels” value is “does not”. The “Significant?, feeding efficiency” value in test [2] is “Yes”. Also, the “% of total variation, feeding efficiency” value in test [2] (weight gained per gram of food consumed, gavage = reutericyclin, injection = semaglutide, interaction = combination) came out at 8.034%. Also, in test [3], the “effect on fasting blood glucose” value is recorded as “no noted effect”. For the same molecule, the “effect on eating (calories ingested per day)” value in test [4] is “no noted effect”. Besides, the “Significant?, change in weight after withdrawal of the semaglutide” value in test [5] (semaglutide stopped at day 26) is “Yes”. In test [5] (semaglutide stopped at day 26, gavage = reutericyclin, injection = semaglutide, interaction = combination), the “% of total variation, change in weight after withdrawal of the semaglutide” value is on record as 5.422%. Also, the “Significant?, change in body mass” value in test [6] is recorded as “Yes”. Besides, the “% of total variation, change in body mass” value in test [6] (gavage = reutericyclin 100 μg/kg, injection = semaglutide 1 nmole/kg/day IP, interaction = combination) was 7.893%.
